From paper PMC10541198, “Specific quinone reductase 2 inhibitors reduce metabolic burden and reverse Alzheimer’s disease phenotype in mice” (The Journal of Clinical Investigation, 2023) come the findings set out here.

Where only a bound is given, the exact number is not on record here.

Usually IC50 stands for the concentration needed to halve the response being measured.

For one test, the target named is T1, QR1 (Homo sapiens, UniProt P15559).
T1 construct: purchased Sigma-Aldrich
Put plainly: QR1 selectivity assay, fluorescence. The format is biochemical. Conditions: Figure 2D; readout not stated. The text has this:
(§1) A drug discovery campaign strategy was initiated to screen compounds for QR2-specific, cell-free inhibition and in vitro activity, followed by SAR optimization (Figure 2A) to achieve highly specific and potent QR2 inhibitor synthesis. In order to establish a varied and chemically amenable starting point, we developed a high-throughput QR2 assay (Supplemental Methods) that we screened against a library with approximately 200,000 compounds. […] Compounds that replicated the initial hit result were then assayed similarly against QR1 to evaluate compound specificity (Figure 2B). From the HTS, a chemically tractable and attractive series of compounds containing a sulfone flanked by an amine and a heterocycle were identified and selected for SAR development (Figure 2C, Supplemental Methods, Supplemental Table 1, and Supplemental Table 2). […]
(§2) menadione and 10 nM of QR2) were dispensed in 1536-well black Nunc plates (Thermo-Fisher) using aMultidrop™ Combi Reagent Dispenser (Thermo-Fisher) and pre-incubated with compounds for 10min. BNAH (200µM) was t hen added (3 µL) to the reaction using a BioNex Solutions BNX1536plate washer and the plates were incubated for another 10 min. Fluorescence intensity was followed in a PHERAstar FS multi-mode plate reader (BMG Labtech) us i ng an optic module with excitation at 360 nm and emission at 470 nm. The initial HTS includedapproximately 200,000 compounds at a single concentrationof 5 µM. The chemical libraries used were Selleck Chemicals Bioactives, the Drug-like set from Enamine, HitFinder collection from Maybridge, Spectrum Collection from Microsource, Lopa c from Sigma -Aldrich and the diversity set s from Chem Div and Che m Br idge .
Initial ‘‘hit’’ compounds were defined as causing >30% reduction of enzyme activity. Compounds suspected to be fluorescent were re -assayed in an absorbance assay at 350 nm using the same reaction but in a higher volume (100 µL), in a transparent plate (Greiner Bio- One). ‘‘Hit’’ compounds resulting from both the fluorescence and absorbance assay wer e t ested in a concentration- response, and IC50 values were de t er mi ne d. In parallel, the same

Another test addresses T2, QR2 (Homo sapiens, UniProt P16083).
T2 construct: purchased Sigma-Aldrich
T2 sequence (P16083 1-231): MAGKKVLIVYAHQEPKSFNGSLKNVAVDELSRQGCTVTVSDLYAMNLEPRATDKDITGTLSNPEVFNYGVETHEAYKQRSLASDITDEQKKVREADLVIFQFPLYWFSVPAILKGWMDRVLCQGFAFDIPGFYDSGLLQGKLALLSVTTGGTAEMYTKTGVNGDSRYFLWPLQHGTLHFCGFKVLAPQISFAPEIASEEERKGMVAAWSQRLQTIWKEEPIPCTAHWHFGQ
Put plainly: QR2 activity assay, BNAH fluorescence (standard/primary). The format is biochemical. Conditions: for IC50: Figure 2D, readout not stated.
Excerpt: as §1
High Throughput Screen (H TS)
The enzymatic activity of QR 2 (10 nM) was measur ed using menadione (both Sigm a -Aldrich) as subst r at e and dihydro- benzylnicotinamide (BNAH; Tocris) as co-substrate(62). The reaction was performed in 50 mM Tri s HCl, 150 mM NaCl 0.01%Tween- 20 pH=8.5 (Sigma-Aldrich) at r oom tem per atur e. Briefl y, 3 µL of menadione alone (200 µM) or a mixture of menadione and QR2 (200 µM of […]
as §2
Initial ‘‘hit’’ compounds were defined as causing >30% reduction of enzyme activity. Compounds suspected to be fluorescent were re -assayed in an absorbance assay at 350 nm using the same reaction but in a higher volume (100 µL), in a transparent plate (Greiner Bio- One). ‘‘Hit’’ compounds resulting from both the fluorescence and absorbance assay wer e t ested in a concentration- response, and IC50 values were de t er mi ne d. In parallel, the same concentration response methodologywas appliedin a selectivity assay where QR2 enzymewas replaced byQR1 […]
Chromatography System, with UV/Vis detector 2489, using XBridge® Prep C18 10 μm 10x250 mm […]
was monitored by Wat er s UPLC-MS system: Acquity UPLC® H class with PDA detector, and using […]

T1 sequence (P15559 whole entry): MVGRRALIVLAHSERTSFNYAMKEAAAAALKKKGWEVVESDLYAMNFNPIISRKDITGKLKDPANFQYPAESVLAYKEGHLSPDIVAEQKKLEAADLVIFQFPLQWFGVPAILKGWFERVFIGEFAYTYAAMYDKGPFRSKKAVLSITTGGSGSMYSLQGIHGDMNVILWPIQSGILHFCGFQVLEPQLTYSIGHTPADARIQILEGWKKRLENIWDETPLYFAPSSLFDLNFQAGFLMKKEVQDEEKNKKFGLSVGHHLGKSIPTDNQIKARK

With `Cc1ccc(-c2cn3cccc(C)c3n2)cc1S(=O)(=O)N1CCC(C)CC1` [YB-800], the values for the IC50 on QR1 and against QR2 were over 9990 nM and 30 nM, respectively.

The molecule `Cc1ccc(-c2cn3cccc(C)c3n2)cc1S(=O)(=O)N1CCNCC1` [YB-537] had a concentration for half-maximal inhibition (IC50) on QR1 of over 9990 nM. Moreover, on QR2, the “binding affinity to QR2 than to QR1” value is given as “more than 6,000 fold”, the “specificity to QR2 compared with QR1” value is listed as “more than 6,000 times” and the IC50 amounted to 3 nM.

Regarding `Cc1ccc(-c2cn3cccc(C)c3n2)cc1S(=O)(=O)N1CCCC1` [YB-808], it took 10 nM to reach half-maximal inhibition at QR2 (IC50).
